Numbers after ± are expanded uncertainties.
Conditions: 297.9 K, Liquid mixture 1, Pendant drop shape

interfacial tension (7020 kPa): 31.9 ± 0.7 mN/m
interfacial tension (8020 kPa): 31.9 ± 0.7 mN/m
interfacial tension (10010 kPa): 31.8 ± 0.7 mN/m
interfacial tension (14990 kPa): 30.6 ± 0.7 mN/m
interfacial tension (19990 kPa): 30 ± 0.7 mN/m
Compound: O=C=O [carbon dioxide] + O

Source: the NIST ThermoML archive (doi:10.1021/je100198g)
